Experimental findings from patent US6630483B2, “Phenanthridine-N-oxides” (Altana Pharma AG, priority 2000, dated 2003) are described below.

For one data set, the system named is PDE IV. The data set can be described thus: Inhibition of PDE4 activity (method of Bauer and Schwabe, microtiter plates). In kind it is biochemical. The source says: The activity test can be carried out, for example, according to the method of Bauer and Schwabe. For this, the method is adapted to microtiter plates (Naunyn-Schmiedeberg's Arch. Pharmacol. 1980, 311, 193-198). The PDE reaction takes place in the first step here. In a second step, the resulting 5′-nucleotide is cleaved by a 5′-nucloetidase of the snake venom of Crotalus atrox to the uncharged nucleoside. In the third step, the nucleoside is separated from the remaining charged substrate on ion-exchange columns. The columns are eluted directly into minivials, into which 2 ml of scintillator fluid are additionally added for counting, using 2 ml of 30 mM ammonium formate (pH 6.0).

`COc1cc2c(cc1OC)[C@@H]1CCCC[C@@H]1[N+]([O-])=C2c1ccc(S(C)(=O)=O)cc1` [Compound 1, (−)-cis-8,9-Dimethoxy-6-(4-methanesulfonylphenyl)-1,2,3,4,4a,10b-hexahydrophenanthridine-N-oxide] registered a melting point of 229 to 231 °C. Besides, in the data set on PDE IV, the “-log IC50” value is 6.09.

By melting point is commonly meant the temperature, or range, at which the solid turns liquid.
